pIC50: −log10 of the molar value.
Tests used:
C. parvum PI(4)K = C. parvum PI(4)K (Cryptosporidium parvum, UniProt Q5CVD3); assay: CpPI(4)K enzymatic assay (Transcreener ADP2 FP); type: biochemical
From the text: The full-length coding sequence of C. parvum PI(4)K (cgd8_4500, 1114 amino acids) was codon-optimized for baculovirus expression, synthesized and cloned into pFastBac-HTb (Invitrogen 10584-027) in frame with the amino-terminal polyhistidine tag using the BamHI and Hindlll restriction sites. Recombinant pFastBacHTb-CpPI(4)K bacmid clones were generated by site-specific transposition in E. coli DH10Bac (Invitrogen 10361-012). The bacmid sequence was confirmed by direct DNA sequencing to confirm a lack of mutations across the whole gene. The subsequent steps for bacmid isolation, transfection and selection of the recombinant viruses were performed according to the manufacturer's protocol (Bac-to-Bac system #10359, Invitrogen).
SF9 cells, cultured in SF-900 III serum-free medium, were transfected with recombinant baculovirus at 1/200 (v/v) and incubated at 27° C. for 72 h. The pellets were collected after centrifugation and re-suspended in cell lysis buffer (20 mM Tris-HCl, pH 7.5, 300 mM NaCl, 1 mM DTT, 20 mM imidazole, 0.01% Triton X-100 and 1× complete protease inhibitor cocktail without EDTA (Roche Diagnostics 04693116001)). The cell suspension was lysed by sonication and the clarified supernatant was loaded onto a 1 ml HisTrap affinity column (GE Healthcare) pre-equilibrated with buffer A (20 mM Tris-HCl, pH 7.5, 300 mM NaCl, 1 mM DTT, 20 mM Imidazole, and 1× complete protease inhibitor cocktail without EDTA). The column was washed with buffer B (buffer A containing 45 mM imidazole) and the bound protein of interest was eluted with buffer C (buffer A with 90 mM imidazole). The fractions containing CpPI(4)K were pooled, concentrated using Amicon Ultra-15 and purified by a gel-filtration column (Hi-Load 26/60 Superdex 200, GE Healthcare) equilibrated with 20 mM Tris, pH 7.5, 300 mM NaCl, 1 mM DTT and 1× protease inhibitor cocktail without EDTA. The concentrations of the purified protein (Mw 132.39 kda) was determined by using the protein molar extinction coefficient (ε280 nm=133,810 M^−1 cm^−1). Aliquots were flash frozen in liquid nitrogen and immediately stored at −80° C.
The CpPI(4)K enzymatic assay was performed as described earlier with a some modifications (McNamara et al., 2013). Briefly, L-α-phosphatidylinositol (Avanti Polar Lipid 840046), dissolved in 3% n-octylglucoside (Roche Diagnostics 10634425001), was used as the lipid substrate for the PI(4)K activity assay. CpPI(4)K was assayed using Transcreener ADP2 FP detection kit (BellBrook 3010) in a black, solid 384-well plate (Corning 3575). The final assay volume was 10 μl and contained 3 nM of the respective CpPI(4)K construct in 10 mM Tris, pH 7.5, 1 mM DTT, 3 μM ATP, 5 mM Mn2+, 0.05% Triton X-100 and 10 μM phosphatidylinositol/octylglucoside. The enzyme reaction was performed for 50 minutes at room temperature and was stopped by adding 10 μl of detection mix containing 1× stop buffer (50 mM HEPES, pH7.5, 400 mM NaCl, 20 mM EDTA, and 0.02% Brij-35), 2 nM AMP Alexa Fluor 633 tracer, and 20 μg ml^−1 ADP antibody. Fluorescence polarization measurements were performed on the Infinite M1000 plate reader (Tecan) with λex=635 nm and λem=680 nm (20-nm bandwidth). IC50 values were calculated using Graphpad Prism software.
The inhibitory concentration (IC50) of selected compounds on the C. parvPI(4)K activity is provided in the third column [Cp_PI4K_enz IC50 (μM)] of Table II.

[1] = Cytotoxicity against HepG2; type: cell-based; details: human, HepG2 cells (ATCC HB-8065), 5 days exposure
How it was run: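 Cells seeded at 10^5 per well, held 24 h at 37 °C, then exposed to two-fold serial dilutions of compound for 5 days. Viability read with Cell Proliferation Kit II (XTT); values reported as CC50.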

Sequence of C. parvum PI(4)K (Q5CVD3 entry or part of it): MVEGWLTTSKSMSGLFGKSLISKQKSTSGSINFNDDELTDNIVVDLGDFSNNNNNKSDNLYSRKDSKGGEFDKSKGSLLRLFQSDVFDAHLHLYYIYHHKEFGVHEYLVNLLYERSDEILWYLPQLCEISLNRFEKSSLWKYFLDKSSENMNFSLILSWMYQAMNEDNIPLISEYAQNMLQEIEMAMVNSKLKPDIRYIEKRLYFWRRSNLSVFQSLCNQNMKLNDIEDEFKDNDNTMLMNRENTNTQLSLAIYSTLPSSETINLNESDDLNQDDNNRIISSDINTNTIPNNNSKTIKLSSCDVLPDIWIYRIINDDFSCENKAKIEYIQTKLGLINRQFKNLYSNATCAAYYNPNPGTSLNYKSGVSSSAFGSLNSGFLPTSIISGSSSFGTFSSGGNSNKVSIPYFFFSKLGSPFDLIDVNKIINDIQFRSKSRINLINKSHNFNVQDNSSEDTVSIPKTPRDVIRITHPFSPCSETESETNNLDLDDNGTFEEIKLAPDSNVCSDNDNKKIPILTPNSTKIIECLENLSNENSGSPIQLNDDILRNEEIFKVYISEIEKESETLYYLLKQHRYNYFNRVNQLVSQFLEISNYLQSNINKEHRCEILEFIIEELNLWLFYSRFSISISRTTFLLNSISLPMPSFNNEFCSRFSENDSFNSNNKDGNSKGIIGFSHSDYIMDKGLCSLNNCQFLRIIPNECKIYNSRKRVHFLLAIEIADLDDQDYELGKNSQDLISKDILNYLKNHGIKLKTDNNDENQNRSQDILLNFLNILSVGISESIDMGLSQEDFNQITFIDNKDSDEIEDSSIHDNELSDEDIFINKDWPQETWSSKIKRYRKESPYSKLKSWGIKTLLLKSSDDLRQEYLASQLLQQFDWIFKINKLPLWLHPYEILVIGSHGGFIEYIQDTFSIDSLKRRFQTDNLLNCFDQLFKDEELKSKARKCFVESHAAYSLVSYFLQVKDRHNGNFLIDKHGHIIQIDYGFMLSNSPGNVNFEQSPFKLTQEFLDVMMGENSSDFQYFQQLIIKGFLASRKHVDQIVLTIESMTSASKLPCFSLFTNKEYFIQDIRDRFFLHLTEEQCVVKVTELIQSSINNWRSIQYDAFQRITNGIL

Compound | pIC50 (C. parvum PI(4)K) | CC50 at 5 days [1] [µM]
CNC(=O)c1ccc(-c2cnn3ccc(C(=O)N(c4ccc(C#N)cn4)C4CCC4)cc23)cc1 [Example 112] | 7.14 | 5.01
N#Cc1ccc(N(C(=O)c2ccn3ncc(-c4ccc(C(N)=O)cc4)c3c2)C2CC2)nc1 [Example 120] | 7.40 | 23.7
CNC(=O)c1ccc(-c2cnn3ccc(C(=O)N(NC)c4ccc(C#N)cc4)cc23)cn1 [Example 92] | 7.24 | 8.52
CNC(=O)c1ccc(-c2cnn3ccc(C(=O)N(c4ccc(C(F)(F)F)cn4)C(C)C)cc23)cc1 [Example 153] | 8.22 | 20.6
N#Cc1ccc(N(C(=O)c2ccn3ncc(-c4ccc(C(=O)NC5CC5)cc4)c3c2)C2CC2)nc1 [Example 123] | 7.42 | 17.2
CCN(C(=O)c1ccn2ncc(-c3ccc(C(=O)NC)cc3)c2c1)c1ccc(C#N)cn1 [Example 90] | 8.10 | 14.8
CNC(=O)c1ccc(-c2cnn3ccc(N(C)C(=O)c4ccc(C#N)cn4)cc23)cc1 [Example 94] | 6.93 | 31.2
CCN(C(=O)c1ccn2ncc(-c3ccc(C(=O)NC)cc3)c2c1)c1ccc(C(F)(F)F)cn1 [Example 96] | 8.52 | 7.14
CC(C)NC(=O)c1ccc(-c2cnn3ccc(C(=O)N(c4ccc(C#N)cn4)C4CC4)cc23)cc1 [Example 121] | 6.07 | 33.2
CNC(=O)c1ccc(-c2cnn3ccc(C(=O)N(c4ccc(C#N)c(OC)n4)C4CC4)cc23)cc1 [Example 149] | 8.40 | 23.3
N#Cc1ccc(N(C(=O)c2ccn3ncc(-c4ccc(C(=O)NC5COC5)cc4)c3c2)C2CC2)nc1 [Example 131] | 6.48 | > 50
CNC(=O)c1ccc(-c2cnn3ccc(C(=O)N(c4ccc(Cl)cn4)C4CC4)cc23)cc1 [Example 124] | 7.85 | 21
CCN(C(=O)c1ccn2ncc(-c3ccc(C(=O)NC)nc3)c2c1)c1ccc(C#N)cn1 [Example 150] | 6.66 | 9.82
CCNC(=O)c1ccc(-c2cnn3ccc(C(=O)N(c4ccc(C#N)cn4)C4CC4)cc23)cc1 [Example 127] | 8.52 | 40.2
CNC(=O)c1ccc(-c2cnn3ccc(C(=O)N(c4ccc(C#N)cn4)C(C)C)cc23)cc1 [Example 91] | 7.68 | 18.7
CNC(=O)c1ccc(-c2cnn3ccc(C(=O)N(c4ccc(C(F)(F)F)cn4)C4CCC4)cc23)cc1 [Example 160] | 8.10 | 2.09

— patent publication US20190030009A1, “COMPOUNDS AND COMPOSITIONS FOR THE TREATMENT OF CRYPTOSPORIDIOSIS” (Novartis AG, priority 2016, published 2019)
